Data as given in ChEMBL document CHEMBL5465560, “Selectivity Literature for EUbOPEN Chemogenomic Library” (2024).
Each block holds one compound with its values, some of them ahead of it.

Tests used:
[1] = target: Dual specificity protein kinase CLK1 (Homo sapiens, UniProt P49759); experiment: Selectivity interaction (Ambit KINOMEscan and KiNATiv profiling in Jurkat cells) EUB0000090b CLK1; assay type: cell-based; settings: at 1 µM
[2] = target: T1, Calcium/calmodulin-dependent protein kinase type IV (Homo sapiens) (UniProt Q16566); experiment: Selectivity interaction (KinomeScan (DiscoverX)) EUB0000655a CAMK4; settings: at 10 µM
T1 sequence (whole entry): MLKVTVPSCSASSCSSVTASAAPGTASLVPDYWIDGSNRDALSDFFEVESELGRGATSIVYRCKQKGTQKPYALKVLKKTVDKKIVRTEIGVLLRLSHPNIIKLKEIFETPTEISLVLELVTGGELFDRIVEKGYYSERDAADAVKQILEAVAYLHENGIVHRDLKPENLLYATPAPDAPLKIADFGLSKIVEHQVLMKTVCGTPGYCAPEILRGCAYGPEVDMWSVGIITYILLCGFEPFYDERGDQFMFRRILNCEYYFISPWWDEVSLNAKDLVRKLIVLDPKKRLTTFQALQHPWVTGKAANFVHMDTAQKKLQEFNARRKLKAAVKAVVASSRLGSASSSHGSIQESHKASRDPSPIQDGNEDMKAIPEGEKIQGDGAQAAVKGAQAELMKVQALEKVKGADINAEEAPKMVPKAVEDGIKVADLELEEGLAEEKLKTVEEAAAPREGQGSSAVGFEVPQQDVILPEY

[3] = target: T2, Interleukin-1 receptor-associated kinase 3 (Homo sapiens) (UniProt Q9Y616); experiment: Selectivity interaction (KinomeScan (DiscoverX)) EUB0000655a IRAK3; settings: at 10 µM
T2 sequence (whole entry): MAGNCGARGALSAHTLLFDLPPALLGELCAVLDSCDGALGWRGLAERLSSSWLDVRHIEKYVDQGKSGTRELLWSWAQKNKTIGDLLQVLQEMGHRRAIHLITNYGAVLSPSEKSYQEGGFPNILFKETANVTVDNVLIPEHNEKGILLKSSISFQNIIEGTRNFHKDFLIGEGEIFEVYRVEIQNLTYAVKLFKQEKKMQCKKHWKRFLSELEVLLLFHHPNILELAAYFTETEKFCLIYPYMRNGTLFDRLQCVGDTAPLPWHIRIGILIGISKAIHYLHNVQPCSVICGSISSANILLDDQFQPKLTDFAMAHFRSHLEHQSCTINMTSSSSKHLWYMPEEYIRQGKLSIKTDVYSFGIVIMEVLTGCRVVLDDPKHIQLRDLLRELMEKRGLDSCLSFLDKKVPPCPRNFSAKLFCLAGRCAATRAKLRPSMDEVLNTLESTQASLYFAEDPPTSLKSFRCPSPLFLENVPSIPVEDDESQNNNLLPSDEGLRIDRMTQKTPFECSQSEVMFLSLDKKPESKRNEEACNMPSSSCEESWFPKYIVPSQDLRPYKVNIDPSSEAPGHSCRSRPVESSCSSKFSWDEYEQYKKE

[4] = target: Casein kinase I isoform gamma-1 (Homo sapiens) (UniProt Q9HCP0); experiment: Selectivity interaction (KinomeScan (DiscoverX)) EUB0000618a CSNK1G1; settings: at 10 µM
[5] = target: T3, Mitogen-activated protein kinase kinase kinase kinase 2 (Homo sapiens) (UniProt Q12851); experiment: Selectivity interaction (KinomeScan (DiscoverX)) EUB0000045b MAP4K2
T3 sequence (whole entry): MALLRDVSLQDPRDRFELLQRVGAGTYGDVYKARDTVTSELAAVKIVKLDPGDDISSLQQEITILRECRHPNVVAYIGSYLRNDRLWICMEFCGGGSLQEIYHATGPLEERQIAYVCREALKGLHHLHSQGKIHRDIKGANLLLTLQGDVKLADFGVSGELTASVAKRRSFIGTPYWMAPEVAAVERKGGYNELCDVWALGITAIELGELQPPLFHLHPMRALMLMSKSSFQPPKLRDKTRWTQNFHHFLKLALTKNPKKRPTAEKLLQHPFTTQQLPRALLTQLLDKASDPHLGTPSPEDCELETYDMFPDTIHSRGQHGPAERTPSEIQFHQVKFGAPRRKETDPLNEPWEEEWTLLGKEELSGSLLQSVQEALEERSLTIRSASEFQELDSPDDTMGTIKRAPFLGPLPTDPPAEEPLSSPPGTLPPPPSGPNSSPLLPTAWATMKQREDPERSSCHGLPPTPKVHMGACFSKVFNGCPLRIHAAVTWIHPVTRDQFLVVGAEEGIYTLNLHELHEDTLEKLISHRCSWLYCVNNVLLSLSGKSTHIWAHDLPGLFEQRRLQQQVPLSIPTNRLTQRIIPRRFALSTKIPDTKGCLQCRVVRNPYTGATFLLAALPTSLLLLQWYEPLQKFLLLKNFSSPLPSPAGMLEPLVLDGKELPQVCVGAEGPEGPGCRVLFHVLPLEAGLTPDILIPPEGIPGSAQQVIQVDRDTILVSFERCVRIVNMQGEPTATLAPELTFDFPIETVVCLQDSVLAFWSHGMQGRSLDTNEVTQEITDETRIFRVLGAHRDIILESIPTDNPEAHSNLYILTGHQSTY

[6] = target: [Pyruvate dehydrogenase (acetyl-transferring)] kinase isozyme 1, mitochondrial (Homo sapiens, UniProt Q15118); experiment: Selectivity interaction (Kinase panel (Invitrogen)) EUB0000639a PDK1; settings: at 200 nM
[7] = target: Casein kinase I isoform epsilon (Homo sapiens, UniProt P49674); experiment: Selectivity interaction (Kinase panel (Z-LYTE Assay)) EUB0001632a CSNK1E; settings: at 10 µM
[8] = target: T4, Sphingosine kinase 2 (Homo sapiens) (UniProt Q9NRA0); experiment: Selectivity interaction (Adapta Assay) EUB0001632a SPHK2; settings: at 10 µM
T4 sequence (whole entry): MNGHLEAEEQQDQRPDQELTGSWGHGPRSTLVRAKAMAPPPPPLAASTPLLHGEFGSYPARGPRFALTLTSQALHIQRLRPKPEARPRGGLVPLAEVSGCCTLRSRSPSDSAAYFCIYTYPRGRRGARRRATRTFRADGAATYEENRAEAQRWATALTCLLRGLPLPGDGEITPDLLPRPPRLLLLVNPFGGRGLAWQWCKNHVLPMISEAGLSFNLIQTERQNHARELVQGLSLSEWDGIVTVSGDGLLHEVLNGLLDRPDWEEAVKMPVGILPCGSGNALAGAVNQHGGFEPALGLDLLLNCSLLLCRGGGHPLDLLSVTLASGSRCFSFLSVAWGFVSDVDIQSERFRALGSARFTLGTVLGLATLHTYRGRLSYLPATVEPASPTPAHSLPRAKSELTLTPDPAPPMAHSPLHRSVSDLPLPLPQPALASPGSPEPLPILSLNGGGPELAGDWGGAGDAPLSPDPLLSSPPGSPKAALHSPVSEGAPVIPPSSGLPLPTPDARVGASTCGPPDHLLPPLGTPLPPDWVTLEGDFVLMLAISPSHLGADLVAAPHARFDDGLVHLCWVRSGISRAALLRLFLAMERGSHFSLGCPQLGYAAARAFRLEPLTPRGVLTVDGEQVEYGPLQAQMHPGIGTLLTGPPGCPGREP

Sequence of Casein kinase I isoform epsilon (P49674 whole entry, looked up, canonical isoform): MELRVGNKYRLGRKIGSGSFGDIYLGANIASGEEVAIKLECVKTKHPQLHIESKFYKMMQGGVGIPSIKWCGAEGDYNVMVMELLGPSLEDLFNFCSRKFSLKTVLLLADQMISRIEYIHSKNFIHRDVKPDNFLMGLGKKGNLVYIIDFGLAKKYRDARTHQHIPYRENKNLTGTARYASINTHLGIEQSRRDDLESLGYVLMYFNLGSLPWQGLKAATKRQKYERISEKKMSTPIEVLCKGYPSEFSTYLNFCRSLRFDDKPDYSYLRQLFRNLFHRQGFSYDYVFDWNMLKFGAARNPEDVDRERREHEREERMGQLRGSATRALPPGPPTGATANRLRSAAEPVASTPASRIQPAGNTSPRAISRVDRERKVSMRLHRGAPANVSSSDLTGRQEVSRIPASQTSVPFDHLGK
Sequence of Dual specificity protein kinase CLK1 (P49759 whole entry, looked up): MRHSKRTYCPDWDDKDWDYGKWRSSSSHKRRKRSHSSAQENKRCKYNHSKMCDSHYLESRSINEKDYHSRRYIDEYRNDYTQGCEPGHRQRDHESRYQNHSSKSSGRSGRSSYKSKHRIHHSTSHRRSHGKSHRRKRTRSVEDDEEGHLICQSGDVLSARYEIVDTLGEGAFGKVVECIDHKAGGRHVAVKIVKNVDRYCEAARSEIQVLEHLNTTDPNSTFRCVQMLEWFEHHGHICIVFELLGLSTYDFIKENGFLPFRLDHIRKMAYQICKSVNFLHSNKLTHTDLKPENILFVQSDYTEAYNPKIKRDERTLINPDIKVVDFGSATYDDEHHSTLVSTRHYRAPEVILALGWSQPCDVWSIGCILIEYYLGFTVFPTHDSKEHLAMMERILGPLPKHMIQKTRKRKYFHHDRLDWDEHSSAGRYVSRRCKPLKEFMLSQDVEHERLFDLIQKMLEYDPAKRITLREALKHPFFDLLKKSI
Sequence of Casein kinase I isoform gamma-1 (Homo sapiens) (Q9HCP0 whole entry, looked up, canonical isoform): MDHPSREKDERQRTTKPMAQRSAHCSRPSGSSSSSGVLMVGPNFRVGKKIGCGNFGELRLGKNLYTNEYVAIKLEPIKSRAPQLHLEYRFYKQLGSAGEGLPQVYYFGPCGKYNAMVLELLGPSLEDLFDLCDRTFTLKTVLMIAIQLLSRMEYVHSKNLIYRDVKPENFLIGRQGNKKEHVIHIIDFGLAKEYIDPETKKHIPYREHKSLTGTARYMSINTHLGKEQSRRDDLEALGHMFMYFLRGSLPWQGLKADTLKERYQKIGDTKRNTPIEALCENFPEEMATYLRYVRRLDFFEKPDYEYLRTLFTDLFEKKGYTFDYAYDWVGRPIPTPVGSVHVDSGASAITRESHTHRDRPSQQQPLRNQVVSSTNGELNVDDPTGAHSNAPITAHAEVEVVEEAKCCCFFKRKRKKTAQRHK

SMILES: CN(C)C/C=C/C(=O)Nc1ccc(C(=O)N2CCCC(Nc3ncc(Cl)c(-c4c[nH]c5ccccc45)n3)C2)cc1 (centres undefined)
- % of control [1]: 62%

SMILES: CN(C)CCOc1ccc(-c2nc(-c3ccncc3)c(-c3ccc4c(c3)CC/C4=N\O)[nH]2)cc1
- % of control [2]: 87%
- % of control [3]: 71%

SMILES: O[C@H]1CC[C@H](Nc2ncc3nc(Nc4c(F)cc(F)cc4F)n([C@H]4CCOC4)c3n2)CC1
- % of control [4]: 100%

SMILES: C=CC(=O)Nc1cc(-n2c(=O)ccc3cnc4ccc(-c5ccc(NS(C)(=O)=O)cc5)cc4c32)ccc1C
- % of control ([5]; at 1 µM): 100%
- % of control ([5]; at 10 µM): 89%

- % of inhibition [6]: 15.8%
SMILES: CC[C@@H]1[C@H](F)C(=O)N[C@@H]1COc1nccc2cc(C(N)=O)c(OC)cc12 [ZIMLOVISERTIB]

- % of control [7]: 48.9%
- % of inhibition [8]: 67.7%
SMILES: Cn1cc(-n2cnc3c(NCc4nc5cc(Cl)c(Cl)cc5[nH]4)nc(N4CCOCC4)nc32)cn1
